# From patent publication US10980813B2, “Antifungal composition” (SEED RESEARCH INSTITUTE CO., LTD., priority 2017, dated 2021)
# Tests used:
# Assay in all cases: Antifungal activity, MIC by disc (diffusion) method
# Saccharomyces = assay type: cell-based; details: YMG agar, 24 hr at 28° C., read-out: MIC (minimum inhibitory concentration) Saccharomyces
# Description: (§1) Measurement Method of Antifungal Activity in Various Compounds
# (§2) The minimum inhibitory concentration (MIC) was measured by a disc method (diffusion method). The disc method is one kind of the diffusion method, and is a method in which filter paper (disc) impregnated with an antifungal substance at a given concentration is placed on an agar medium (test plate) coated with a test bacterium and cultivated. The disc absorbs water in the medium, diffuses the antifungal substance and forms a given concentration gradient. As a result, the test bacterium forms a growth inhibition zone (circle) in the periphery of the disc, and the level of sensitivity to the antifungal substance is determined from the diameter of the inhibition circle.
# (§3) Using the aforementioned method, MIC of various compounds was measured.
# (§4) i: In a 100 mL flask, 20 mL of YMG or Mueller Hinton medium is produced.
# (§5) ii: A loopful of the test bacterium is dissolved in the medium.
# (§6) iii: The medium is cultured at 200 rpm for 24 hr in a rotary shaker set to 28° C.
# (§7) i: In a 300 mL flask, 100 mL of YMG or Mueller Hinton agar medium (low melting point agar) is produced.
# (§8) ii: After cooling to 37° C.-40° C., preculture medium (1 mL) is added and the mixture is agitated.
# (§9) iii: The mixture is dispensed to a square petri dish (size: 100*150*17 mm) by 20 mL each.
# (§10) iv: The dish is stood at room temperature until the agar is solidified.
# (§11) i: The compound is diluted in ½ dilution series in 10 stages (timely changed according to compound), 50 μL of solution/pulp at each dilution stage is produced, the organic solvent is dried at room temperature and placed on a test plate.
# (§12) ii: After culturing T. rubrum for 48 hr and other test bacteria for 24 hr at 28° C. in an incubator, the size of the inhibition circle was measured.
# (§13) The medium composition for culture which was used for the aforementioned preculture is shown below.
# (§14) [Medium Compositions for Preculture and Test Plate]
# (§15) <<YMG Medium>>: For Fungus
# (§16) Agar, powder 0.8% * added only when producing test plate
# T. mentagrophytes = assay type: cell-based; details: Trichophyton mentagrophytes, YMG agar, 24 hr at 28° C., read-out: MIC (minimum inhibitory concentration) T. mentagrophytes
# Description: as §1, §2, §3, §4, §5, §6, §7, §8, §9, §10, §11, §12, §13, §14, §15, §16
# T. rubrum = assay type: cell-based; details: Trichophyton rubrum, YMG agar, 48 hr at 28° C., read-out: MIC (minimum inhibitory concentration) T. rubrum
# Description: as §1, §2, §3, §4, §5, §6, §7, §8, §9, §10, §11, §12, §13, §14, §15, §16
# A. fumigatus = assay type: cell-based; details: Aspergillus fumigatus, YMG agar, 24 hr at 28° C., read-out: MIC (minimum inhibitory concentration) A. fumigatus
# Description: as §1, §2, §3, §4, §5, §6, §7, §8, §9, §10, §11, §12, §13, §14, §15, §16
# C. parapsilosis = assay type: cell-based, Candida parapsilosis; details: Lodderomyces parapsilosis, YMG agar, 24 hr at 28° C., read-out: MIC (minimum inhibitory concentration) C. parapsilosis
# Description: as §1, §2, §3, §4, §5, §6, §7, §8, §9, §10, §11, §12, §13, §14, §15, §16
Structure (SMILES),MIC (Saccharomyces) [µg/mL],MIC (T. mentagrophytes) [µg/mL],MIC (T. rubrum) [µg/mL],MIC (A. fumigatus) [µg/mL],MIC (C. parapsilosis) [µg/mL]
O=S1(=O)N=CC2=COc3ccccc3C2=N1 [I-6a],4,1,1,4,4
O=[N+]([O-])c1ccc2c(c1)C=NS(=O)(=O)O2 [I-1e],4,1,1,4,4
O=S1(=O)N=CC2=COc3ccc(Cl)cc3C2=N1 [I-6c],4,1,1,4,4
O=S1(=O)N=C(c2ccc(Cl)cc2)CO1 [I-3d],8,2,2,8,8
CC1=CC(C)=NS(=O)(=O)N1 [I-2b],16,2,2,16,16
COC(=O)c1ccc2c(c1)C=NS(=O)(=O)O2 [I-1f],4,1,1,4,4
O=S1(=O)N=CC2=COc3ccc(F)cc3C2=N1 [I-6b],4,1,1,4,4
CC1=NS(=O)(=O)Nc2ccccc21 [I-1k],8,2,2,8,8
N#Cc1ccc2c(c1)C=NS(=O)(=O)O2 [I-1g],4,1,1,4,4
COc1ccc2c(c1)C=NS(=O)(=O)O2 [I-1d],8,2,2,8,8
CC1=C(C)C(c2ccccc2)=NS(=O)(=O)N1 [I-2d],8,2,2,8,8

# The remaining lines, values ahead:
MIC (Saccharomyces) [µg/mL],MIC (T. mentagrophytes) [µg/mL],MIC (T. rubrum) [µg/mL],MIC (A. fumigatus) [µg/mL],MIC (C. parapsilosis) [µg/mL],Structure (SMILES)
8,2,2,8,8,CC12ON1S(=O)(=O)Nc1ccccc12 (stereo not drawn) [II-1k]
8,2,2,8,8,O=S1(=O)N=C(CCc2ccc(F)cc2)C2ON21 (stereo not drawn) [II-4c]
8,2,2,8,8,O=S1(=O)N2OC2c2nccn21 (stereo not drawn) [II-5a]
4,1,1,4,4,O=S1(=O)N=C2C(=COc3ccc(F)cc32)C2ON21 (stereo not drawn) [II-6b]
8,2,2,8,8,CC12ON1S(=O)(=O)Oc1ccccc12 (stereo not drawn) [II-1j]
8,2,2,8,8,O=S1(=O)OCC2(c3ccc(Cl)cc3)ON21 (stereo not drawn) [II-3d]
8,2,2,8,8,O=S1(=O)Nc2ccc(Cl)cc2C2(c3ccccc3)ON21 (stereo not drawn) [II-1l]
8,2,2,8,8,O=S1(=O)N=C(CCc2ccc(Cl)cc2)C2ON21 (stereo not drawn) [II-4d]
8,2,2,8,8,CC1=C(C)C2(C)ON2S(=O)(=O)O1 (stereo not drawn) [II-2a]
4,1,1,4,4,O=S1(=O)N=C2C(=COc3ccccc32)C2ON21 (stereo not drawn) [II-6a]
4,2,2,4,4,CCC1OS(=O)(=O)N2OC12CC (stereo not drawn) [II-3b]
16,4,4,16,16,CC1=NS(=O)(=O)N2OC12C (stereo not drawn) [II-4b]
16,2,2,16,16,CC1=CC2(C)ON2S(=O)(=O)N1 (stereo not drawn) [II-2b]
